≈ marks a conversion by molar mass, not a printed value.
SMILES	solubility (25 °C) [mM]	solubility (20 °C) [mM]	also measured
CC(=O)N[C@@H](CC(C)C)C(=O)O	46.8 (≈ 8100 µg/mL)	–	–
CCc1cc(C)cc(O)c1	17 (≈ 2320 µg/mL)	–	–
Nc1ccc(Cl)cc1[N+](=O)[O-]	–	2.9 (≈ 500 µg/mL)	–
Cn1c(=O)c2c(n(C)c1=O)n(C)c(=O)n2C	–	112 (≈ 25000 µg/mL)	–
CC(C)SS(=O)C(C)C (configuration not stated)	–	–	solubility: 150 mM (≈ 25000 µg/mL)
Cn1c(=O)ncc2[nH]c(=O)[nH]c21	–	–	solubility: 161 mM (≈ 26700 µg/mL)
CCC1OCCO1	–	–	solubility: 1960 mM (≈ 200000 µg/mL)
CCCOCCC(=O)OCCC	20.7 (≈ 3600 µg/mL)	–	–
O=C(O)CCP(=O)(O)O	–	3170 (≈ 488000 µg/mL)	–
O=C(c1cccc2ccccc12)N(O)c1ccccc1	–	–	solubility: 0.114 mM (≈ 30 µg/mL)
O=[N+]([O-])c1cc(CCO)ccc1O	69.9 (≈ 12800 µg/mL)	–	–
Cc1ccc(S(=O)(=O)N(Cl)Cl)cc1	0.342 (≈ 82.1 µg/mL)	–	–
CCCCCOC(=O)c1cccnc1	4.19 (≈ 810 µg/mL)	–	–
O/N=C1\C=CCCC1	–	146 (≈ 16200 µg/mL)	–
Cc1nc(Br)[nH]c1[N+](=O)[O-]	16.2 (≈ 3330 µg/mL)	–	–
O=C(Nc1ccccn1)c1cccnc1	1.05 (≈ 210 µg/mL)	–	–
C[C@@H](N)[C@@H](O)c1ccccc1	132 (≈ 20000 µg/mL)	–	–
O=C(O)C(O)C(O)c1ccccc1 (configuration not stated)	–	494 (≈ 90000 µg/mL)	–
N[C@@H](C(=O)O)[C@@H](O)[C@H](O)[C@H](O)CO	–	138 (≈ 27000 µg/mL)	–
O=S(=O)(O)c1ncc[nH]1	–	–	solubility: 844 mM (≈ 125000 µg/mL)
CCCCOC(=O)c1ccc(O)c(I)c1	–	–	solubility (30 °C): 0.125 mM (≈ 40 µg/mL)

SMILES	solubility (25 °C) [mM]	solubility (20 °C) [mM]	also measured
N#CSc1ccc(N)cc1	2.5 (≈ 376 µg/mL)	–	–
Clc1ncc2nccnc2n1	–	200 (≈ 33300 µg/mL)	–
CC(=O)Nc1ccc(Br)cc1C	–	17.5 (≈ 4000 µg/mL)	–
C=CCCCN=C=S	–	1.26 (≈ 160 µg/mL)	–
CCOC(=O)N1CCN(C(=O)OCC)CC1	187 (≈ 43000 µg/mL)	–	–
CC(=O)C(=O)Nc1ccccc1	–	–	solubility: 42.9 mM (≈ 7000 µg/mL)
CCCC(C)C(O)CC (configuration not stated)	10.9 (≈ 1420 µg/mL)	–	–
CC(C)(CCC(C)(C)CC(=O)O)CC(=O)O	0.738 (≈ 170 µg/mL)	–	–
NNc1cccc(S(=O)(=O)O)c1	–	–	solubility (22 °C): 149 mM (≈ 28000 µg/mL)
O=C1C=Cc2ccccc2C1=NO	–	1.16 (≈ 200 µg/mL)	–
CCCCCCCCCCCCCCNC(=O)C(C)O (configuration not stated)	0.105 (≈ 30 µg/mL)	–	–
CCCCC(C)C(C)O (configuration not stated)	8.75 (≈ 1140 µg/mL)	–	–
COCCCl	846 (≈ 80000 µg/mL)	–	–
CSc1ncc2nccnc2n1	–	17.5 (≈ 3130 µg/mL)	–
CCOC(=O)N[C@@H](C=O)[C@@H](O)[C@H](O)[C@H](O)CO	–	–	solubility: 1300 mM (≈ 327000 µg/mL)
CC(=O)Oc1ccccc1/C=C/C(=O)O	0.698 (≈ 144 µg/mL)	–	–
O=P(O)(O)c1cccc2ccccc12	–	–	solubility: 24 mM (≈ 5000 µg/mL)
NC(=O)CBr	–	1160 (≈ 160000 µg/mL)	–
O=C(S)CCCCCCC(=O)S	–	–	solubility (26 °C): 5.82 mM (≈ 1200 µg/mL)
Cc1cc(Cl)c(O)c(Cl)c1	38 (≈ 6730 µg/mL)	–	–
C[C@H](NC=O)C(=O)O (racemic)	–	1020 (≈ 120000 µg/mL)	–

Reference: the OPERA property sets (Mansouri et al. 2018)
